Experimental data taken from paper PMC9132415, “Identification of 1H-pyrazolo[3,4-b]pyridine derivatives as novel and potent TBK1 inhibitors: design, synthesis, biological evaluation, and molecular docking study” (Journal of Enzyme Inhibition and Medicinal Chemistry, 2022).

Assays:
Assay type in all cases: cell-based
Panc0504 cells = assay: Antiproliferative activity, SRB staining; conditions: Panc 05.04, pancreatic cell line, 72 h
Procedure: (§1) A172, U87MG, A375, A2058, and Panc0504 cell lines were obtained from ATCC and cultured in indicated medium according to ATCC’s instructions. Cells were seeded in 96 well-plates at a destiny of around 2000 cells per well one day prior to administrated to increasing doses of indicated compounds. After 72 h of treatment, cells were washed with PBS and were fixed by 10% trichloroacetic acid before stained by sulphorhodamine B (SRB) solution. Unstained SRB were washed away by 1% acetic acid to reduce background signals. A Tris-based solution (10 mM) were used to dissolve stained SRB and the absorbance at 540 nm was measured with SpectraMax Paradigm (Molecular Devices). Inhibition rate was calculated by the relative absorbance value of test compound wells with the average of control wells […].

A375 cells = assay: Antiproliferative activity, SRB staining; conditions: Homo sapiens, A-375, melanoma cell line, 72 h
Procedure: as §1

A2058 cells = assay: Antiproliferative activity, SRB staining; conditions: Homo sapiens, melanoma cell line, 72 h
Procedure: as §1

A172 cells = assay: Antiproliferative activity, SRB staining; conditions: Homo sapiens, A 172, glioma cell line, 72 h
Procedure: as §1

U87MG cells = assay: Antiproliferative activity, SRB staining; conditions: Homo sapiens, U-87 MG, glioma cell line, 72 h
Procedure: as §1

[1] = tested on: ifnb and cxcl10 gene expression in RAW264.7 cells; assay: mRNA detection of TBK1 downstream genes (RT-PCR), LPS-stimulated RAW264.7 cells; conditions: LPS-stimulated murine RAW264.7 cells

Cc1nc2c(F)cc(-c3n[nH]c4ncc(-c5cccc(S(N)(=O)=O)c5)cc34)cc2n1C(C)C [Compound 15y]
IC50 (Panc0504 cells): 3600 nM
IC50 (A375 cells): 3100 nM
IC50 (A2058 cells): 900 nM
IC50 (A172 cells): 1400 nM
IC50 (U87MG cells): 2400 nM
inhibition of ifnb and cxcl10 expression [1]: profound activity
